In article PMC12392461, “Beyond Estrogenicity: A Comparative Assessment of Bisphenol A and Its Alternatives in In Vitro Assays Questions Safety of Replacements” (Environmental Science & Technology, 2025):
Read-outs that look alike come from different tables or passages of the source.

Experiments:
[1] = target: T1, Peroxisome proliferator-activated receptor γ (Homo sapiens, UniProt P37231); assay: cell-based; details: for EC10, linear / logEC10 / EC10, linear transformed: PPARγ bioassay, dosing range all; for EC10, linear: linear model; for logEC10: log-logistic model; for EC10, PPARγ (M): 10% of maximum effect of rosiglitazone; for SR-ScorePPARγ: SR-Score, sigma k=1, x=5; for EC10, PPARγ: effect; for log(1/EC10) PPARγ: input of the ToxPi score, values up to 1.00; for Emax: read-out: Emax%PPARγ
T1 sequence (P37231 238-505 limits assumed): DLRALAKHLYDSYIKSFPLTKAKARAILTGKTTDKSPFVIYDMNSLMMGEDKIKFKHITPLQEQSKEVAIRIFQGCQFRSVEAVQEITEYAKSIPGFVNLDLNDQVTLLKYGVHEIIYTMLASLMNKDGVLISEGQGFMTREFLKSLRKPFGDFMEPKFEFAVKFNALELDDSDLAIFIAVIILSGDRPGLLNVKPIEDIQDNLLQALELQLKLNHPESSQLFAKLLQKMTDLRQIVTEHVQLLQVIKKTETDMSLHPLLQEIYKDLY
Description: All bioassay media components and the ERα-UAS-bla GripTite and PPARγ-UAS-bla cells were obtained from Thermo Fisher Scientific (Waltham, MA, USA). AREc32 reporter gene cells based on MCF7 were provided by C. Roland Wolf (Cancer Research UK); AhR CALUX cells (H4L7.5c2 derived from H4IIe) were provided by Michael Denison (UC Davis, USA); and SH-SY5Y cells were purchased from Sigma-Aldrich.
(§1) Cell culture conditions and bioassay protocols including response detection are provided in Text S2.1–2.4 and Table S3. − Cell viability was determined from cell confluency using an IncuCyte S3 Live-Cell Analysis System (Sartorius AG, Essen, Germany) before and after exposure, except for SH-SY5Y cells (live–dead staining with Nuclear Green LcS1 and propidium iodide, Abcam, UK). For metabolic activation experiments, cell viability was assessed using the ToxBLAzer DualScreen Kit (Thermo Fisher Scientific) to capture the remaining toxicity in ERα-UAS-bla GripTite after treatment with the aCYP catalyst (details in Text S2.4).
(§2) For ARE, the concentration that triggered an induction ratio of 1.5 (ECIR1.5) was used as the benchmark value, as detailed in Text S2.5. IC10 values also served as a threshold for data analysis in all assays; only concentrations below IC10 were considered when deriving EC10 or ECIR1.5.
The maximum efficacy (Emax%) refers to the maximum of the log–logistic concentration–response curve attained by test chemicals compared to the reference chemical’s maximum and was obtained for both ERα and PPARγ. […]
S2: Cell culture and bioassays
S2.1: Cell Culturing Conditions
All suppliers and sources are given in detail in SI-Excel S3. The bioassay media for the different assays were prepared as follows: Assay medium for ER alpha-UAS-bla GripTite (ERα) and […]
2% charcoal-stripped FBS, and 100 U/mL penicillin-streptomycin. […]
(§3) S2.2: Cell Seeding and Incubation. For all bioassays, cell suspensions in the respective assay medium were dispensed into each well of 384-well plates using a MultiFlo Dispenser (Biotek, (now Agilent), Winooski, VT, U.S.). After seeding, the plates were incubated at 37° C and 5% CO₂ for […]. The final cell densities and plate types were as follows: Black poly-D-lysine […]
6500 cells/well, ERα: 5000 cells/well. White 384-well plates with a clear bottom (Product No. […]
S2.3: Chemical Dosing and Assay Analysis Procedures.

H4IIe (AhR CALUX) = details: for IC10, H4IIe, AhR: H4IIe (AhR assay cells)
Procedure: as §1, §2
(§4) We measured the cytotoxicity of BPA and its alternatives in HEK293H (PPARγ), HEK293T (ERα), H4IIe (AhR CALUX), MCF7 (ARE/MMP), and differentiated SH-SY5Y cells (Table S6). […]
as §3
(§5) 6500 cells/well, ERα: 5000 cells/well. White 384-well plates with a clear bottom (Product No.
(§6) NYC, U.S.) for AhR: 3250 cells/well. Black Collagen I coated plates were used (Product No.
(§7) S2.3: Chemical Dosing and Assay Analysis Procedures. The dosing procedure and high-throughput assay workflow have been described in detail before. 9 The dosing concentrations […]
(§8) Stock solutions were then either added directly to the respective cell culture medium or evaporated under nitrogen, followed by replenishment with fresh medium. The final solvent content in each well was kept below 1% for methanol, 0% for acetonitrile.
(§9) Dosing plates were prepared as 11 -step serial dilutions using a Hamilton Microlab Star robotic system (Hamilton, Bonaduz, Switzerland), and chemicals were dosed in duplicates by transferring 10 μL twice from the dosing plates to the cell plates . After quantifying cell confluency as described in S2. 4., the exposed cells were incubated at 37° C and 5% CO₂ for an additional 24 h. All chemicals were tested in all assays with at least three independent […]
(§10) S2.4: Cell Viability Measurement s and bioanalytical protocols . The confluency as a measure of cell viability was determined with an IncuCyte S3 Live -Cell Analysis System (Sartorius AG, Essen, Germany). With this method the confluency of cells in a microscopy image are normalized to control wells without cells and compared before and after 24 hours of exposure.
(§11) This method has been described previously 13. […]

HEK293H (PPARγ) = details: for IC10, linear: linear model; for IC10, HEK293, PPARγ: cytotoxicity, HEK293 (PPARγ assay cells)
Procedure: as §1, §2, §4, §3, §5, §6, §7, §8, §9, §10, §11

HEK293T (ERα) = details: for IC10, HEK293, ERα: HEK293 (ERα assay cells)
Procedure: as §1, §2, §4, §3, §5, §6, §7, §8, §9, §10, §11

MCF7 (ARE/MMP) = details: for IC10, MCF7, ARE: MCF7, ARE readout; for IC10, MCF7, MMP: MCF7, MMP readout
Procedure: as §1, §2, §4, §3, §5, §6, §7, §8, §9, §10, §11

[2] = Bioassay AhR, cytotoxicity, dosing range all, linear model fit
[3] = Bioassay AhR, cytotoxicity, dosing range all, log-logistic model fit
[4] = PPARγ bioassay cytotoxicity, dosing range all
[5] = PPARγ bioassay cytotoxicity, dosing range all, log-logistic model
[6] = Bioassay ERα, cytotoxicity, dosing range all
[7] = Bioassay ERα, cytotoxicity, dosing range all, linear model fit
[8] = Bioassay ERα, cytotoxicity, dosing range all, log-logistic model fit
[9] = Bioassay ARE, cytotoxicity, dosing range all
[10] = Bioassay ARE, cytotoxicity, dosing range all, linear model fit
[11] = Bioassay ARE, cytotoxicity, dosing range all, log-logistic model fit
[12] = MMP bioassay cytotoxicity, dosing range all
[13] = MMP bioassay cytotoxicity, dosing range all, linear model
[14] = MMP bioassay cytotoxicity, dosing range all, log-logistic model
[15] = against baseline cytotoxicity, MMP readout
[16] = Bioassay AhR, cytotoxicity, dosing range all

| SMILES | EC10, linear [1] | logEC10 [1] | IC10, linear (H4IIe (AhR CALUX); [2]) | logIC10 (H4IIe (AhR CALUX); [3]) | IC10, linear transformed (HEK293H (PPARγ); [4]) | IC10, linear (HEK293H (PPARγ); [4]) | logIC10 (HEK293H (PPARγ); [5]) | Toxic ratio (TR) TRPPARγ (HEK293H (PPARγ); against baseline cytotoxicity) | IC10, HEK293, PPARγ (HEK293H (PPARγ)) | IC10, linear transformed (HEK293T (ERα); [6]) | IC10, linear (HEK293T (ERα); [7]) | logIC10 (HEK293T (ERα); [8]) | Toxic ratio (TR) TRERα (HEK293T (ERα); against baseline cytotoxicity) | IC10, HEK293, ERα (HEK293T (ERα); cytotoxicity) | IC10, linear (MCF7 (ARE/MMP); [10]) | logIC10 (MCF7 (ARE/MMP); [11]) | IC10, linear transformed (MCF7 (ARE/MMP); [12]) | IC10, linear (MCF7 (ARE/MMP); [13]) | logIC10 (MCF7 (ARE/MMP); [14]) | IC10, MCF7, MMP (MCF7 (ARE/MMP); cytotoxicity) | other results |
| --- | --- | --- | --- | --- | --- | --- | --- | --- | --- | --- | --- | --- | --- | --- | --- | --- | --- | --- | --- | --- | --- |
| CC(C)(c1ccc(OCC2CO2)cc1)c1ccc(OCC2CO2)cc1 (stereo not shown) [BADGE, Bisphenol A diglycidyl ether] | no effect | no effect | no cytotoxicity | no cytotoxicity | 1.49E-05 | no cytotoxicity | -4.62 | 0.42 | 24 µM | 1.08E-05 | no cytotoxicity | -4.73 | 0.54 | 18.8 µM | 3.62E-05 | -4.41 | 7.87E-05 | 8.59E-05 | -4.10 | 78.7 µM | IC10, linear transformed (MCF7 (ARE/MMP); [9]): 3.85E-05; Toxic ratio (TR) TRARE (MCF7 (ARE/MMP); against baseline cytotoxicity, ARE readout): 0.61; Toxic ratio (TR) TRMMP (MCF7 (ARE/MMP); [15]): 0.30; IC10, MCF7, ARE (MCF7 (ARE/MMP); cytotoxicity): 38.5 µM |
| CC(C)CC(C)(c1ccc(O)cc1)c1ccc(O)cc1 [BP-MIBK, 4,4'-(1,3-Dimethylbutylidene)diphenol] | no effect | no effect |  |  |  |  |  |  |  |  |  |  |  |  |  |  |  |  |  |  | IC10, linear (H4IIe (AhR CALUX)): no cytotoxicity; logIC10 (H4IIe (AhR CALUX); rat, 24 h): -4.05; logIC10 (HEK293H (PPARγ); human, 24 h): -5.09; IC10, linear (HEK293T (ERα)): no cytotoxicity; logIC10 (HEK293T (ERα)): no cytotoxicity; logIC10 (HEK293T (ERα); human, 24 h): -5.04; IC10, linear (MCF7 (ARE/MMP)): no cytotoxicity |
| Cc1cc(Cc2cc(C)c(O)c(C)c2)cc(C)c1O [TMBPF, Bis(3,5-dimethyl-4-hydroxyphenyl)methane] | 5.55E-07 | -6.48 | 1.11E-04 | -3.98 | 4.21E-07 | 3.65E-06 | -5.53 | 1.52 | 2.95 µM | 5.55E-06 | 6.58E-06 | -5.17 | 0.68 | 6.58 µM | no cytotoxicity | no cytotoxicity | 1.42E-05 | no cytotoxicity | -4.85 | 14.2 µM | EC10, PPARγ (M) [1]: 3.29 × 10^–7 M; EC10, linear transformed [1]: 3.29E-07; SR-ScorePPARγ [1]: 0.98; Specificity ratio (SRbaseline) SRPPARγ ([1]; against baseline cytotoxicity): 13.64; Specificity ratio (SRcytotoxicity) SRPPARγ ([1]; against experimental cytotoxicity): 8.97; EC10, PPARγ [1]: 0.329 µM; log(1/EC10) PPARγ [1]: 0.92; Emax [1]: 18%; IC10, linear transformed (H4IIe (AhR CALUX); [16]): 1.05E-04; Toxic ratio (TR) TRAhR (H4IIe (AhR CALUX); against baseline cytotoxicity): 0.13; IC10, H4IIe, AhR (H4IIe (AhR CALUX); cytotoxicity): 105 µM; Toxic ratio (TR) TRMMP (MCF7 (ARE/MMP); [15]): 0.95 |
| CC(C)(c1ccc(O)cc1)c1ccc(O)cc1 [BPA, 4,4'-(Propane-2,2-diyl)diphenol, reference compound] | no effect | no effect |  |  |  |  |  |  |  |  |  |  |  |  |  |  |  |  |  |  | PPARγ activation ([1]; at concentrations up to IC10): did not activate PPARγ; IC10, linear (H4IIe (AhR CALUX)): no cytotoxicity; logIC10 (H4IIe (AhR CALUX); rat, 24 h): -3.77; Toxic ratio (TR) TRPPARγ (HEK293H (PPARγ); human, 24 h): 0.38; logIC10 (HEK293H (PPARγ); human, 24 h): -4.45; IC10, linear (HEK293T (ERα)): no cytotoxicity; logIC10 (HEK293T (ERα)): no cytotoxicity; Toxic ratio (TR) TRERα (HEK293T (ERα); human, 24 h): 0.28; logIC10 (HEK293T (ERα); human, 24 h): -4.33; Toxic ratio (TR) TRARE (MCF7 (ARE/MMP); human, 24 h): 0.37; Toxic ratio (TR) TRMMP (MCF7 (ARE/MMP); human, 24 h): 0.31 |
| Oc1ccc(Sc2ccc(O)cc2)cc1 [BPT, 4,4'-Thiodiphenol] | 1.48E-06 | -6.02 | 5.00E-05 | -4.09 | 4.47E-06 | 2.13E-05 | -4.76 |  | 17.4 µM | 4.06E-05 | 2.43E-05 | -4.53 |  | 24.3 µM | 3.07E-04 | -3.76 | 2.05E-04 | 2.97E-04 | -3.69 | 205 µM | EC10, PPARγ (M) [1]: 9.61 × 10^–7 M; EC10, linear transformed [1]: 9.61E-07; SR-ScorePPARγ [1]: 1.00; EC10, PPARγ [1]: 0.961 µM; log(1/EC10) PPARγ [1]: 0.85; Emax [1]: 20%; IC10, linear transformed (H4IIe (AhR CALUX); [16]): 8.07E-05; IC10, H4IIe, AhR (H4IIe (AhR CALUX); cytotoxicity): 50 µM; IC10, linear transformed (MCF7 (ARE/MMP); [9]): 1.75E-04; IC10, MCF7, ARE (MCF7 (ARE/MMP); cytotoxicity): 175 µM |
